Measurements reported in patent US20100021903A1, “Use of Genetic Determinants in Cardiovascular Risk Assessment” (priority 2006, published 2010).

Experiments:
[1] = test system: hypertensive patients with coronary artery disease; assay: INVEST-GENES cohort: primary and secondary cardiovascular outcomes (death, nonfatal MI, nonfatal stroke), Cox regression; settings: for Incidence, Nonfatal MI / Incidence, Nonfatal Stroke / Incidence, Primary Outcome / Incidence, All-cause Mortality: crude incidence; for HR (95% CI) Atenolol vs. Verapamil, Nonfatal MI / HR (95% CI) Atenolol vs. Verapamil, Nonfatal Stroke / HR (95% CI) Atenolol vs. Verapamil, Primary Outcome: reduced model; for HR, KCNMB1 codon 110 (Leu110) variant allele on primary outcome, separately by treatment strategy: within patients randomized to the named drug
[2] = test system: hypertensive patients with coronary artery disease; assay: Nested case-control study within INVEST-GENES: primary outcome, logistic regression; settings: for SNP effect in arm (OR, 95% CI), Death / SNP effect in arm (OR, 95% CI), MI / SNP effect in arm (OR, 95% CI), Stroke: within treatment arm; for Total Number of Events: primary outcome; for OR, effect of CACNB2 rs2357928 genotype on the primary outcome, by treatment: within CCB-treated or β-blocker-treated patients; for OR, ALOX5 promoter polymorphism variant carriers, adverse cardiovascular outcomes, By Drug Therapy: within patients on the named drug
Description: The model contained the following baseline covariates used for primary INVEST analyses: age, sex, race/ethnicity, body mass index, smoking, INVEST treatment strategy, previous myocardial infarction, previous stroke, heart failure, diabetes, renal insufficiency, baseline systolic blood pressure, diuretic use, and ACE inhibitor use, plus codon 65 and 110 genotype, and the interaction term between genotype and strategy assignment.
Relationships between single nucleotide polymorphisms (SNP) and haplotypes of arachidonate 5-lipoxygenase pathway genes and cardiovascular events were tested. […] A haplotype of ALOX5AP and SNPs was genotyped in both LTC4S and LTA4H, encoding 5-lipoxygenase activating protein, leukotriene C4 synthase and leukotriene A4 hydrolase respectively. The effects of these variants on the primary outcome using the X^2 test and logistic regression was analyzed.
Pharmacogenetic relationships were tested between a polymorphism of the LTA4H gene which encodes leukotriene A4 hydrolase and cardiovascular events based on drug-treatment. […] The LTA4H SNP rs2660845 were genotyped and analyzed the effect and interaction of this variant with antihypertensive drug treatment on the primary outcome with the X^2 test and logistic regression.
There was minimal linkage disequilibrium in CACNA1C and CACNB2. 8 SNPs in CACNA1C were examined in the case-control group.

[3] = test system: hypertensive patients with coronary artery disease; assay: Blood pressure response to atenolol and number of antihypertensive drugs needed to reach BP control by ADRB1/ADRB2 genotype
[4] = test system: hypertensive subjects; settings: Nguyen et al. 2000; cited from earlier work
[5] = primary outcome, 0 GGC (ADRB2 46G-79G-523C) copies
[6] = LTA4H rs2660845 G-carriers (n = 466)
[7] = Patients on Atenolol (N = 2,830)
[8] = Patients on Atenolol, number of patients

CC(C)NCC(O)COc1ccc(CC(N)=O)cc1 (stereo not drawn) [atenolol]
Incidence, Nonfatal MI ([1]; 0 copies ADRB2 46G-79G-523C): 3.5 per 1000 patient-years | Incidence, Nonfatal Stroke ([1]; 0 copies ADRB2 46G-79G-523C): 4.2 per 1000 patient-years | Incidence, Primary Outcome ([1]; 0 copies ADRB2 46G-79G-523C): 10.8 per 1000 patient-years | HR (95% CI) Atenolol vs. Verapamil, Nonfatal MI ([1]; 0 copies ADRB2 46G-79G-523C): 0.60 (0.31-1.16) | HR (95% CI) Atenolol vs. Verapamil, Nonfatal Stroke ([1]; 0 copies ADRB2 46G-79G-523C): 0.85 (0.44-1.62) | HR (95% CI) Atenolol vs. Verapamil, Primary Outcome ([1]; 0 copies ADRB2 46G-79G-523C): 0.60 (0.41-0.87) | Incidence, Nonfatal MI ([1]; 1 copy ADRB2 46G-79G-523C): 5.8 per 1000 patient-years | Incidence, Nonfatal Stroke ([1]; 1 copy ADRB2 46G-79G-523C): 4.8 per 1000 patient-years | HR (95% CI) Atenolol vs. Verapamil, Nonfatal MI ([1]; 1 copy ADRB2 46G-79G-523C): 1.94 (0.89-4.20) | HR (95% CI) Atenolol vs. Verapamil, Nonfatal Stroke ([1]; 1 copy ADRB2 46G-79G-523C): 1.01 (0.50-2.05) | HR (95% CI) Atenolol vs. Verapamil, Primary Outcome ([1]; 1 copy ADRB2 46G-79G-523C): 1.03 (0.69-1.54) | Incidence, Nonfatal MI ([1]; 2 copies ADRB2 46G-79G-523C): 9.1 per 1000 patient-years | Incidence, Nonfatal Stroke ([1]; 2 copies ADRB2 46G-79G-523C): 5.1 per 1000 patient-years | Incidence, Primary Outcome ([1]; 2 copies ADRB2 46G-79G-523C): 22.3 per 1000 patient-years | HR (95% CI) Atenolol vs. Verapamil, Nonfatal MI ([1]; 2 copies ADRB2 46G-79G-523C): 1.53 (0.51-4.57) | HR (95% CI) Atenolol vs. Verapamil, Nonfatal Stroke ([1]; 2 copies ADRB2 46G-79G-523C): 0.79 (0.22-2.81) | HR (95% CI) Atenolol vs. Verapamil, Primary Outcome ([1]; 2 copies ADRB2 46G-79G-523C): 1.35 (0.68-2.67) | HR, primary outcome, atenolol vs. verapamil SR ([1]; carriers (1 or 2 copies) of ADRB2 46G-79G-523C haplotype): 1.10 | HR, primary outcome, atenolol vs. verapamil SR ([1]; non-carriers of ADRB2 46G-79G-523C haplotype): 0.59 | Events/1000 Patient-Years [1, 5]: 10.6 Events/1000 Patient-Years | Events/1000 Patient-Years ([1]; primary outcome, 1 GGC copy): 15.1 Events/1000 Patient-Years | Events/1000 Patient-Years ([1]; primary outcome, 2 GGC copies): 23.5 Events/1000 Patient-Years | Events/1000 Patient-Years ([1]; primary outcome, All Patients): 13.6 Events/1000 Patient-Years | HR, KCNMB1 codon 110 (Leu110) variant allele on primary outcome, separately by treatment strategy [1]: 0.84 | RR: BB vs CCB by genotype, Death ([2]; CACNA1C rs1051375): 0.50 | RR: BB vs CCB by genotype, MI ([2]; CACNA1C rs1051375): 0.39 | RR: BB vs CCB by genotype, Stroke ([2]; CACNA1C rs1051375): 0.38 | SNP effect in arm (OR, 95% CI), Death ([2]; CACNA1C rs1051375): 0.64 (0.37-1.12) | SNP effect in arm (OR, 95% CI), MI ([2]; CACNA1C rs1051375): 0.38 (0.22-0.68) | SNP effect in arm (OR, 95% CI), Stroke ([2]; CACNA1C rs10848683): 0.706 (0.375, 1.329) | Total Number of Events ([2]; All subjects (n = 935)): 113 | Total Number of Events ([2]; LTA4H AA (n = 469)): 41 | Total Number of Events [2, 6]: 63 | OR, effect of CACNB2 rs2357928 genotype on the primary outcome, by treatment [2]: 0.50 | OR, ALOX5 promoter polymorphism variant carriers, adverse cardiovascular outcomes, By Drug Therapy [2]: 1.577 | covariate-adjusted systolic blood pressure reduction ([3]; 1 copy GEC, 6 weeks): −7.9 mmHg | covariate-adjusted systolic blood pressure reduction ([3]; 2 copies GEC, 6 weeks): −6.7 mmHg | patients who achieved sustained blood pressure control ([3]; 619 blood pressure response study patients): 79.8% | mean systolic blood pressure after 6 weeks of treatment ([3]; 619 patients whose BP change could be attributed to atenolol, mean±SD): 139.7±18.3 mmHg | mean reduction in diastolic blood pressure ([3]; 619 patients, 6 weeks): −6.2±10.3 mmHg | mean reduction in systolic blood pressure ([3]; 619 patients, 6 weeks): −11.1±19.5 mmHg | mean diastolic blood pressure after 6 weeks of treatment ([3]; 619 patients, mean±SD): 80.4±9.9 mmHg | patients who achieved sustained blood pressure control ([3]; 2,772 patients with complete genotype data, <140/90 mmHg): 75.0% | Covariate-Adjusted Decline in blood pressure, Diastolic ([3]; ADRB2 C523A AA): −7.4 mmHg | Covariate-Adjusted Decline in blood pressure, Systolic ([3]; ADRB2 C523A AA): −15.2 mmHg | Covariate-Adjusted Decline in blood pressure, Diastolic ([3]; ADRB2 C523A CA): −4.5 mmHg | Covariate-Adjusted Decline in blood pressure, Systolic ([3]; ADRB2 C523A CA): −9.9 mmHg | Covariate-Adjusted Decline in blood pressure, Diastolic ([3]; ADRB2 C523A CC): −5.1 mmHg | Covariate-Adjusted Decline in blood pressure, Systolic ([3]; ADRB2 C523A CC): −8.2 mmHg | Covariate-Adjusted Decline in blood pressure, Diastolic ([3]; ADRB2 Gln27Glu GlnGln): −5.9 mmHg | Covariate-Adjusted Decline in blood pressure, Systolic ([3]; ADRB2 Gln27Glu GlnGln): −11.2 mmHg | Covariate-Adjusted Decline in blood pressure, Diastolic ([3]; ADRB2 Gln27Glu GlnGlu): −4.8 mmHg | Covariate-Adjusted Decline in blood pressure, Systolic ([3]; ADRB2 Gln27Glu GlnGlu): −8.8 mmHg | Covariate-Adjusted Decline in blood pressure, Diastolic ([3]; ADRB2 Gln27Glu GluGlu): −3.4 mmHg | Covariate-Adjusted Decline in blood pressure, Systolic ([3]; ADRB2 Gln27Glu GluGlu): −6.0 mmHg | Covariate-Adjusted Decline in blood pressure, Diastolic ([3]; ADRB2 Gly16Arg ArgArg): −4.9 mmHg | Covariate-Adjusted Decline in blood pressure, Systolic ([3]; ADRB2 Gly16Arg ArgArg): −8.0 mmHg | Covariate-Adjusted Decline in blood pressure, Diastolic ([3]; ADRB2 Gly16Arg GlyArg): −5.9 mmHg | Covariate-Adjusted Decline in blood pressure, Systolic ([3]; ADRB2 Gly16Arg GlyArg): −10.9 mmHg | Covariate-Adjusted Decline in blood pressure, Diastolic ([3]; ADRB2 Gly16Arg GlyGly): −4.2 mmHg | Covariate-Adjusted Decline in blood pressure, Systolic ([3]; ADRB2 Gly16Arg GlyGly): −9.0 mmHg | DBP at 12 months, mean (SD) [3, 7]: 78.3 mmHg | DBP at 24 months, mean (SD) [3, 7]: 77.7 mmHg | SBP at 12 months, mean (SD) [3, 7]: 134.0 mmHg | SBP at 24 months, mean (SD) [3, 7]: 132.3 mmHg | Percent of visits with blood pressure in control, mean (SD) ([3]; Patients on Atenolol (N = 2,830), atenolol-based strategy, SBP < 140 and DBP < 90 mmHg): 59.4 | BP in control at 12 months, No. [3, 8]: 1725 | BP in control at 24 months, No. [3, 8]: 1695 | BP in control at 12 months, (%) ([3]; Patients on Atenolol, percentage of patients at risk at 12 months): (66.0) % | BP in control at 24 months, (%) ([3]; Patients on Atenolol, percentage of patients at risk at 24 months): (69.5) % | Association of ADRB1 haplotypes with blood pressure response to atenolol ([3]; p values >0.2): not significantly associated

NS(=O)(=O)c1cc2c(cc1Cl)NCNS2(=O)=O [diuretics, hydrochlorothiazide]
HR, interaction between ADD1 carrier status and diuretics ([1]; adjusted Cox PH model, primary outcome): 1.02 | Time to primary outcome event, users vs non-users of diuretics ([1]; regardless of ADD1 variant carrier status, Kaplan Meier): not different

COc1ccc(CCN(C)CCCC(C#N)(c2ccc(OC)c(OC)c2)C(C)C)cc1OC (stereo not drawn) [verapamil SR, verapamil]
systolic blood pressure response, average decrease [4]: 12 mmHg | Incidence, All-cause Mortality ([1]; 0 copies ADRB2 46G-79G-523C): 7.3 per 1000 patient-years | Incidence, Nonfatal MI ([1]; 0 copies ADRB2 46G-79G-523C): 5.9 per 1000 patient-years | Incidence, Nonfatal Stroke ([1]; 0 copies ADRB2 46G-79G-523C): 5.1 per 1000 patient-years | Incidence, Primary Outcome ([1]; 0 copies ADRB2 46G-79G-523C): 18.3 per 1000 patient-years | Incidence, All-cause Mortality ([1]; 1 copy ADRB2 46G-79G-523C): 7.0 per 1000 patient-years | Incidence, Nonfatal MI ([1]; 1 copy ADRB2 46G-79G-523C): 2.9 per 1000 patient-years | Incidence, Nonfatal Stroke ([1]; 1 copy ADRB2 46G-79G-523C): 4.7 per 1000 patient-years | Incidence, Primary Outcome ([1]; 1 copy ADRB2 46G-79G-523C): 14.5 per 1000 patient-years | Incidence, All-cause Mortality ([1]; 2 copies ADRB2 46G-79G-523C): 4.2 per 1000 patient-years | Incidence, Nonfatal MI ([1]; 2 copies ADRB2 46G-79G-523C): 6.3 per 1000 patient-years | Incidence, Nonfatal Stroke ([1]; 2 copies ADRB2 46G-79G-523C): 6.3 per 1000 patient-years | Incidence, Primary Outcome ([1]; 2 copies ADRB2 46G-79G-523C): 17.0 per 1000 patient-years | Modification of the adverse effect of ADRB2 46G-79C-523C haplotype on primary outcome ([1]; Example 4): Neither atenolol nor verapamil SR modified the adverse effect of this haplotype | Systolic and diastolic blood pressure control ([1]; patients treated with verapamil vs atenolol, FIG. 23): did not differ | Events/1000 Patient-Years [1, 5]: 18.0 Events/1000 Patient-Years | Events/1000 Patient-Years ([1]; primary outcome, 1 GGC copy): 14.4 Events/1000 Patient-Years | Events/1000 Patient-Years ([1]; primary outcome, 2 GGC copies): 17.1 Events/1000 Patient-Years | Events/1000 Patient-Years ([1]; primary outcome, All Patients): 16.4 Events/1000 Patient-Years | HR, KCNMB1 codon 110 (Leu110) variant allele on primary outcome, separately by treatment strategy [1]: 0.55 | HRadj, ADRB1 49S-389R haplotype on mortality, by treatment ([1]; within patients treated with the named drug): 8.00 | Total Number of Events ([2]; All subjects (n = 935)): 137 | Total Number of Events ([2]; LTA4H AA (n = 469)): 68 | Total Number of Events [2, 6]: 60 | OR, ALOX5 promoter polymorphism variant carriers, adverse cardiovascular outcomes, By Drug Therapy [2]: 1.964

verapamil [verapamil SR]
SNP effect in arm (OR, 95% CI), Death ([2]; CACNA1C rs1051375): 1.28 (0.82, 2.0) | SNP effect in arm (OR, 95% CI), MI ([2]; CACNA1C rs1051375): 0.97 (0.61-1.53) | SNP effect in arm (OR, 95% CI), Stroke ([2]; CACNA1C rs1051375): 1.83 (1.13-2.97) | SNP effect in arm (OR, 95% CI), Death ([2]; CACNA1C rs10848683): 0.659 (0.365, 1.192) | SNP effect in arm (OR, 95% CI), MI ([2]; CACNA1C rs10848683): 0.733 (0.415, 1.294) | SNP effect in arm (OR, 95% CI), Stroke ([2]; CACNA1C rs10848683): 1.340 (0.767, 2.341) | OR, effect of CACNB2 rs2357928 genotype on the primary outcome, by treatment [2]: 1.00
